Experimental data as given in US20070149535A1, “Protein kinase inhibitors” (ONCALIS AG, priority 2004, published 2007).

Experiments:
Experiment in all cases: Yeast growth assay, specificity profiling;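 for EGFR (L858R) growth restoration: Parenthesized + marks a result obtained in a different yeast background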
Type in all cases: cell-based
EphB4 = biological target: T1, EphB4 (Homo sapiens, UniProt P54760); parameters: key: “−” indicates no growth restoration i.e. no activity against the particular kinase; “+”, “++”, and “+++” indicate activity detected by restoration of growth, classified into three categories of potency; “+”, “++”, and “+++” indicate activity detected by restoration of growth, classified into three categories of potency; “+”, “++”, and “+++” indicate activity detected by restoration of growth, classified into three categories of potency; details: 7 concentrations between 0.2 and 100 μM
T1 construct: expressed in transfected cells; host or cells: yeast
T1 sequence (P54760 16-987): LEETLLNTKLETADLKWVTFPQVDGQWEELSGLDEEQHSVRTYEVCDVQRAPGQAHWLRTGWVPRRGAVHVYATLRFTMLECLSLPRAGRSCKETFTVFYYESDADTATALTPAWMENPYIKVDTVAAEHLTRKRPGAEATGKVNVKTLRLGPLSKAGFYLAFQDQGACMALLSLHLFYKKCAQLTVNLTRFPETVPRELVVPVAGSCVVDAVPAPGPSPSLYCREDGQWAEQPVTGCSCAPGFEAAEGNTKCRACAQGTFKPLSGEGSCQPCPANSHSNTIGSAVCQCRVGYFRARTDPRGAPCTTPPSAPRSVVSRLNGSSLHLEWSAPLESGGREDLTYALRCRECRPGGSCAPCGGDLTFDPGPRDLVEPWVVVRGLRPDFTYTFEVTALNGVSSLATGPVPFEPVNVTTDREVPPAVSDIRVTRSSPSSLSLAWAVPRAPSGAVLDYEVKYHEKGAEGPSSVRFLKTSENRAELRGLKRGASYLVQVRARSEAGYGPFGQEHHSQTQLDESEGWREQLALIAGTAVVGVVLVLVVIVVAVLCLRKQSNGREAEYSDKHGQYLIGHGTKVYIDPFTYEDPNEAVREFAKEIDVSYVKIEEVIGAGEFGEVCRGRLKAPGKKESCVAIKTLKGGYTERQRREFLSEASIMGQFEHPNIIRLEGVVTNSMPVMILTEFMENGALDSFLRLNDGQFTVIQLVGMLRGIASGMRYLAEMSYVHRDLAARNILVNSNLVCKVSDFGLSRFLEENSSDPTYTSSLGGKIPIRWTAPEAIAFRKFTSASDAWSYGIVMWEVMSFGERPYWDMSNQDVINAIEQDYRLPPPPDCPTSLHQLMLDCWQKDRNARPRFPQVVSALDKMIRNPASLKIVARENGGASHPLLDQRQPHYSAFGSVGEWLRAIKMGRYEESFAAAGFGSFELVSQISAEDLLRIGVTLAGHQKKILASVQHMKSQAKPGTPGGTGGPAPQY
Method: (§1) Specificity Profiling: Yeast Growth Assay
(§2) The yeast growth assay was performed as described in “Method for the identification and/or validation of receptor tyrosine kinase inhibitors” PCT/CH03/00694 (2004/10/24), section “Modes for Carrying out the Invention, Experiment 1 and Experiment 2.
(§3) Briefly, yeast cells carrying plasmids with the RTK of interest were grown in glucose containing medium (repressing expression). The cultures were diluted into galactose containing medium, which induces the expression of the kinase. Expression of the kinase inhibits growth of the yeast cells, which allows for positive selection of kinase inhibitors restoring growth of cells. Compounds were titrated at 7 concentrations between 0.2 and 100 μM.
(§4) Specificity profiling of compounds, using the yeast growth assay method described above. “−” indicates no growth restoration i.e. no activity against the particular kinase, “+”, “++”, and “+++” indicate activity detected by restoration of growth, classified into three categories of potency according to the maximal level of growth restoration reached and the concentration at which the maximal growth restoration is reached.

RET = biological target: T2, RET (Homo sapiens, UniProt P07949); parameters: key: “−” indicates no growth restoration i.e. no activity against the particular kinase; “+”, “++”, and “+++” indicate activity detected by restoration of growth, classified into three categories of potency; “+”, “++”, and “+++” indicate activity detected by restoration of growth, classified into three categories of potency; “+”, “++”, and “+++” indicate activity detected by restoration of growth, classified into three categories of potency; details: 7 concentrations between 0.2 and 100 μM
T2 construct: expressed in transfected cells; host or cells: yeast
T2 sequence (P07949 29-1114): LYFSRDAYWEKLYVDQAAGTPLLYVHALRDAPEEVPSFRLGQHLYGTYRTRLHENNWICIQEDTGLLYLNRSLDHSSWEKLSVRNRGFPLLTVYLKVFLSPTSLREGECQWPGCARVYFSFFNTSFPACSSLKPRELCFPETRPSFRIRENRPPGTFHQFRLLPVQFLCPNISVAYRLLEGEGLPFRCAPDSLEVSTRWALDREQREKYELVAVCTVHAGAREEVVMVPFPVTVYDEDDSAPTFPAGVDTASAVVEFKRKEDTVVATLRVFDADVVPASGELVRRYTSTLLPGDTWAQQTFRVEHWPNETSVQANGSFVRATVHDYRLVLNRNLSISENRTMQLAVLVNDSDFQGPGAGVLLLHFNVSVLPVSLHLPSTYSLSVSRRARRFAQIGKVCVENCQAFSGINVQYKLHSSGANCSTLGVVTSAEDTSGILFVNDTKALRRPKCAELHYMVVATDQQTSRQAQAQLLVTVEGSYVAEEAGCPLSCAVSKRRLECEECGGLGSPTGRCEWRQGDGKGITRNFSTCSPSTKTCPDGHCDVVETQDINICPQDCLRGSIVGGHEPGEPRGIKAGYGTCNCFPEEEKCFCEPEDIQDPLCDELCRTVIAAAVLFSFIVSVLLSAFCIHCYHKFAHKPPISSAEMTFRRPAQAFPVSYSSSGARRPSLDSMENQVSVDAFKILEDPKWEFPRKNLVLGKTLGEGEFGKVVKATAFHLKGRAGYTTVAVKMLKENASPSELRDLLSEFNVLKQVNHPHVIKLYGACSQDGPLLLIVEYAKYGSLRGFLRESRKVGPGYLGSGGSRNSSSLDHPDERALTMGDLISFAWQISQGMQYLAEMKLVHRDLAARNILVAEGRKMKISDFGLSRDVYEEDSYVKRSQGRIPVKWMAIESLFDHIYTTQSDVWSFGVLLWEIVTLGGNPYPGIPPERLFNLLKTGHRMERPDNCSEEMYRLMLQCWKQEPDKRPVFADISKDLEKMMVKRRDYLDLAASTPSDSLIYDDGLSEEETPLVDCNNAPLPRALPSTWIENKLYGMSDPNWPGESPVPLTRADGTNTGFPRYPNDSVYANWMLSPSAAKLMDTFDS
Method: as §1, §2, §3, §4

EGFR (L858R) = biological target: T3, EGFR (L858R) (Homo sapiens, UniProt P00533, L858R); parameters: key: (+) in a different yeast background; details: in a different yeast background;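 note: Parenthesized + marks a result obtained in a different yeast background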
T3 construct: expressed in transfected cells; host or cells: yeast
Method: as §1, §2, §3, §4

FGFR-2 = biological target: T4, FGFR-2 (Homo sapiens, UniProt P21802); parameters: key: “−” indicates no growth restoration i.e. no activity against the particular kinase; “+”, “++”, and “+++” indicate activity detected by restoration of growth, classified into three categories of potency; “+”, “++”, and “+++” indicate activity detected by restoration of growth, classified into three categories of potency; “+”, “++”, and “+++” indicate activity detected by restoration of growth, classified into three categories of potency; details: 7 concentrations between 0.2 and 100 μM
T4 construct: expressed in transfected cells; host or cells: yeast
T4 sequence (P21802 22-821): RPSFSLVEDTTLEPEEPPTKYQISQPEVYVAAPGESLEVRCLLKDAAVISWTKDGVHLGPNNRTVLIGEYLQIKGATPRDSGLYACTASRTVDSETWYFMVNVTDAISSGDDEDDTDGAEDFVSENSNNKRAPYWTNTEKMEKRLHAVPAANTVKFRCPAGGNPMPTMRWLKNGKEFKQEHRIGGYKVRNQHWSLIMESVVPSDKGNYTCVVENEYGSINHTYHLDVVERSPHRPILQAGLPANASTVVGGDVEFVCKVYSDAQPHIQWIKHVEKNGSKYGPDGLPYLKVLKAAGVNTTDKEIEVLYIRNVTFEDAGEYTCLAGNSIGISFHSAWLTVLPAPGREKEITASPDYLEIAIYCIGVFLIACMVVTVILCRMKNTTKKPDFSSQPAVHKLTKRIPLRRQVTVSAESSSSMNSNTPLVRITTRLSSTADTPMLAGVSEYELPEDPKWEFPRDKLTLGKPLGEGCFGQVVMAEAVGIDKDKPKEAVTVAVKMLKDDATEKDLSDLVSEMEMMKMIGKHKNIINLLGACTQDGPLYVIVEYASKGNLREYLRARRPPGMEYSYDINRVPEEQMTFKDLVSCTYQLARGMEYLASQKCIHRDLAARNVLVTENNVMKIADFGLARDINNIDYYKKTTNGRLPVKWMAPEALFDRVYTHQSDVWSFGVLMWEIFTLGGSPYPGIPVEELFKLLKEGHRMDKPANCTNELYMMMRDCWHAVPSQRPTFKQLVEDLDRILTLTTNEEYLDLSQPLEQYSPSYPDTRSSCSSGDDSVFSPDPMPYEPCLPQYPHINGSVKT
Method: as §1, §2, §3, §4

FGFR-4 = biological target: T5, FGFR-4 (Homo sapiens, UniProt P22455); parameters: key: “−” indicates no growth restoration i.e. no activity against the particular kinase; “+”, “++”, and “+++” indicate activity detected by restoration of growth, classified into three categories of potency; “+”, “++”, and “+++” indicate activity detected by restoration of growth, classified into three categories of potency; “+”, “++”, and “+++” indicate activity detected by restoration of growth, classified into three categories of potency; details: 7 concentrations between 0.2 and 100 μM
T5 construct: expressed in transfected cells; host or cells: yeast
T5 sequence (P22455 22-802): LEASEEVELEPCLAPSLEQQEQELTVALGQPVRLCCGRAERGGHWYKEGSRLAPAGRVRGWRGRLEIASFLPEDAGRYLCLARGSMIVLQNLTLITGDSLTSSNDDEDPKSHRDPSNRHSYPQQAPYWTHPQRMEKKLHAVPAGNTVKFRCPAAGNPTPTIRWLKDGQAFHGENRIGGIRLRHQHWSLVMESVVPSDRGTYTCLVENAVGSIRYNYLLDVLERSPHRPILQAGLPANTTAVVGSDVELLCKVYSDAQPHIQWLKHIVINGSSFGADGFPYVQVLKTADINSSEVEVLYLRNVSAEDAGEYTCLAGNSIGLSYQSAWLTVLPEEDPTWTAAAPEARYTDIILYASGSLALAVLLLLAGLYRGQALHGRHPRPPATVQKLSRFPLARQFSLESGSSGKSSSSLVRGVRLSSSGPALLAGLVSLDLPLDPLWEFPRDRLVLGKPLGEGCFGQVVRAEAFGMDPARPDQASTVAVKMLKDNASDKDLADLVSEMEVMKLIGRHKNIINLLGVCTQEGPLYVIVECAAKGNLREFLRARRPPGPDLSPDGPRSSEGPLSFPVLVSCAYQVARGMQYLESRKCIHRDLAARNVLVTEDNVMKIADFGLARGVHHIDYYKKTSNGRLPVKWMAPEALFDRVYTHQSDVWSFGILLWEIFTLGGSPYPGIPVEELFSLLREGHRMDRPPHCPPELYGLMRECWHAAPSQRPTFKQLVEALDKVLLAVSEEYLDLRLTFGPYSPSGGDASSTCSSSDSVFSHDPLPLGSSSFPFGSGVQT
Method: as §1, §2, §3, §4

PDGFRa = biological target: T6, PDGFRa (Homo sapiens, UniProt P16234); parameters: key: “−” indicates no growth restoration i.e. no activity against the particular kinase; “+”, “++”, and “+++” indicate activity detected by restoration of growth, classified into three categories of potency; “+”, “++”, and “+++” indicate activity detected by restoration of growth, classified into three categories of potency; “+”, “++”, and “+++” indicate activity detected by restoration of growth, classified into three categories of potency; details: 7 concentrations between 0.2 and 100 μM
T6 construct: expressed in transfected cells; host or cells: yeast
T6 sequence (P16234 24-1089): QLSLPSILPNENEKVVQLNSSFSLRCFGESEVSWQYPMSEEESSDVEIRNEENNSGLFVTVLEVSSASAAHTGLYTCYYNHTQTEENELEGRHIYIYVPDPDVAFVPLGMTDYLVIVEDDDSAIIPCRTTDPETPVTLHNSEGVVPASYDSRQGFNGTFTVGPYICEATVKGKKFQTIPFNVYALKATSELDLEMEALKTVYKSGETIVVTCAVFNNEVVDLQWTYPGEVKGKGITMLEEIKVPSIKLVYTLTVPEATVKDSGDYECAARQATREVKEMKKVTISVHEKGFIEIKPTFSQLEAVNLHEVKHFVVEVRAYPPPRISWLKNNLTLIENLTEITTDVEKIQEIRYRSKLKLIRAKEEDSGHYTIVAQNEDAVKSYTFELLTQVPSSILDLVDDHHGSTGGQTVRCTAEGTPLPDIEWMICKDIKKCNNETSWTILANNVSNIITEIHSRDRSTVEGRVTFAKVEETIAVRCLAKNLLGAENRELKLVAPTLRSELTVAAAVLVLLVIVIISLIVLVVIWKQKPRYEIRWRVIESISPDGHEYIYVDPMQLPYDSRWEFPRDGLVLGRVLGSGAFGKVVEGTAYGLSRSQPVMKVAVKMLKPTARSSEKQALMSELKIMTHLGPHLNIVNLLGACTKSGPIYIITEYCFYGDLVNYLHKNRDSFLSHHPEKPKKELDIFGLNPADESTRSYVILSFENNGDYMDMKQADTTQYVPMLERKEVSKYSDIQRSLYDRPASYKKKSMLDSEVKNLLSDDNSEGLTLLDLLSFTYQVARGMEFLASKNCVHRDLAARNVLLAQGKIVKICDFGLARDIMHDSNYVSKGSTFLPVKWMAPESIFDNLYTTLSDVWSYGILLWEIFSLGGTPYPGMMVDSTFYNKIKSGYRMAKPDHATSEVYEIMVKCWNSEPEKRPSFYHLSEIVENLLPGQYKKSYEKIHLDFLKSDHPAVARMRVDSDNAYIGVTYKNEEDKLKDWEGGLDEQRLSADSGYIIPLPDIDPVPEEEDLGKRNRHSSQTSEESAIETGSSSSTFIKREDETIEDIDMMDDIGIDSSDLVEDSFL
Method: as §1, §2, §3, §4

PDGFRb = biological target: T7, PDGFRb (Homo sapiens, UniProt P09619); parameters: key: “−” indicates no growth restoration i.e. no activity against the particular kinase; “+”, “++”, and “+++” indicate activity detected by restoration of growth, classified into three categories of potency; “+”, “++”, and “+++” indicate activity detected by restoration of growth, classified into three categories of potency; “+”, “++”, and “+++” indicate activity detected by restoration of growth, classified into three categories of potency; details: 7 concentrations between 0.2 and 100 μM
T7 construct: expressed in transfected cells; host or cells: yeast
T7 sequence (P09619 33-1106): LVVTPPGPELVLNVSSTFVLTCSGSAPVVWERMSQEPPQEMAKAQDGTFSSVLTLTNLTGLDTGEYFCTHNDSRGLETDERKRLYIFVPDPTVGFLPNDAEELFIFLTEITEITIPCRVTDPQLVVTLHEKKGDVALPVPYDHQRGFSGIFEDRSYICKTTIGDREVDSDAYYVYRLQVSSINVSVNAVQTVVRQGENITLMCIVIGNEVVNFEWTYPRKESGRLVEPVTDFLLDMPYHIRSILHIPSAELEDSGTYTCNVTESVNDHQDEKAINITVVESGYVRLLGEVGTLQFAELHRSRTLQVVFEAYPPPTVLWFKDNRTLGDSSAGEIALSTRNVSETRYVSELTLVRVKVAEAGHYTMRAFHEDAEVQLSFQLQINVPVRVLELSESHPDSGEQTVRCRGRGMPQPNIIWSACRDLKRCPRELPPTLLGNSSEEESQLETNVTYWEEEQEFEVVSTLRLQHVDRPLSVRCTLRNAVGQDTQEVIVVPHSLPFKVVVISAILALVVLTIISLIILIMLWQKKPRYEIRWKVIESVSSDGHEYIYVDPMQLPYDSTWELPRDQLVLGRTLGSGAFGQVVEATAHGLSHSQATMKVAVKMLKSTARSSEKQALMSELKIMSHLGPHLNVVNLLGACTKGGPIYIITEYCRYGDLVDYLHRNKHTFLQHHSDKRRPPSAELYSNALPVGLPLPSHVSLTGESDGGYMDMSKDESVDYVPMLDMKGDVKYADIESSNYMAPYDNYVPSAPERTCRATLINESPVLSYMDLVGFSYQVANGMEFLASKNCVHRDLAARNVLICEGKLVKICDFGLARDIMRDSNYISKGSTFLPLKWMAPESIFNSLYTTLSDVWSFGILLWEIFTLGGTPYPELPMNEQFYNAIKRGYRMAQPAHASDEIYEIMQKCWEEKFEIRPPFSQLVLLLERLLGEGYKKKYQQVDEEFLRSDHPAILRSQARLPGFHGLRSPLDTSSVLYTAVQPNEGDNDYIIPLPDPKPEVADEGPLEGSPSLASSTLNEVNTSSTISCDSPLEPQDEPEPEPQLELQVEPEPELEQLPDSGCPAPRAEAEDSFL
Method: as §1, §2, §3, §4

| Structure (SMILES) | EphB4 growth restoration (EphB4) | RET growth restoration (RET) | EGFR (L858R) growth restoration (EGFR (L858R)) | FGFR-2 growth restoration (FGFR-2) | FGFR-4 growth restoration (FGFR-4) | PDGFRa growth restoration (PDGFRa) | PDGFRb growth restoration (PDGFRb) |
| --- | --- | --- | --- | --- | --- | --- | --- |
| COc1cccc(-c2nc3cnccn3c2Nc2cccc(Cl)c2)c1 [compound 7, (3-Chloro-phenyl)-[2-(3-methoxy-phenyl)-imidazo[1,2-a]pyrazin-3-yl]-amine] | + | + − |  | − | − | − | − |
| Clc1cccc(Nc2c(-c3ccccc3)nc3cnccn23)c1 [compound 35, (3-Chloro-phenyl)-(2-phenyl-imidazo[1,2-a]pyrazin-3-yl)-amine] | + | + |  | − | − | − | − |
| Cc1cccc(Nc2c(-c3ccccc3)nc3cnccn23)c1 [compound 34, (2-Phenyl-imidazo[1,2-a]pyrazin-3-yl)-m-tolyl-amine] | + − | − |  | − | − | − | − |
| CNc1nccn2c(Nc3cccc(Cl)c3)c(-c3ccccc3)nc12 [compound 20, N′3-(3-Chloro-phenyl)-N′8-methyl-2-phenyl-imidazo[1,2-a]pyrazine-3,8-diamine] | − | − |  |  |  |  |  |
| COc1cccc(-c2nc3c(C)nccn3c2Nc2cccc(C)c2)c1 [compound 42, [2-(3-Methoxy-phenyl)-8-methyl-imidazo[1,2-a]pyrazin-3-yl]-m-tolyl-amine] | ++ | − | (+) |  |  |  |  |
| Cc1cccc(Nc2c(-c3ccccc3)nc3c(C)nccn23)c1 [compound 43, (8-Methyl-2-phenyl-imidazo[1,2-a]pyrazin-3-yl)-m-tolyl-amine] | +++ | − |  | − | − | − | − |
| c1ccc(Nc2c(-c3ccccc3)nc3cnccn23)cc1 [compound 23, Phenyl-(2-phenyl-imidazo[1,2-a]pyrazin-3-yl)-amine] | ++ | + |  | − | − | − | − |
| Cc1nccn2c(Nc3ccccc3)c(-c3ccccc3)nc12 [compound 39, (8-Methyl-2-phenyl-imidazo[1,2-a]pyrazin-3-yl)-phenyl-amine] | +++ | + |  | − | − | − | − |

Now from value to compound:

| EphB4 growth restoration (EphB4) | RET growth restoration (RET) | EGFR (L858R) growth restoration (EGFR (L858R)) | FGFR-2 growth restoration (FGFR-2) | FGFR-4 growth restoration (FGFR-4) | PDGFRa growth restoration (PDGFRa) | PDGFRb growth restoration (PDGFRb) | Structure (SMILES) |
| --- | --- | --- | --- | --- | --- | --- | --- |
| +++ | − | (+) |  |  |  |  | CC(=O)Nc1ccc(-c2nc3c(C)nccn3c2Nc2cccc(Cl)c2)cc1 [compound 33, N-{4-[3-(3-Chloro-phenylamino)-8-methyl-imidazo[1,2-a]pyrazin-2-yl]-phenyl}-acetamide] |
| +++ | − |  | − | − | − | − | Cc1nccn2c(Nc3cccc(F)c3)c(-c3ccccc3)nc12 [compound 44, (3-Fluoro-phenyl)-(8-methyl-2-phenyl-imidazo[1,2-a]pyrazin-3-yl)-amine] |
| − | − |  | − | − | − | − | Brc1cccc(Nc2c(-c3ccccc3)nc3cnccn23)c1 [compound 14, (3-Bromo-phenyl)-(2-phenyl-imidazo[1,2-a]pyrazin-3-yl)-amine] |
| ++ | − | (+) |  |  |  |  | CC(=O)Nc1ccc(-c2nc3cnccn3c2Nc2cccc(Cl)c2)cc1 [compound 8, N-{4-[3-(3-Chloro-phenylamino)-imidazo[1,2-a]pyrazin-2-yl]-phenyl}-acetamide] |
| +++ | − |  | − | − | − | − | Cc1nccn2c(Nc3ccc(F)c(F)c3)c(-c3ccccc3)nc12 [compound 45, (3,4-Difluoro-phenyl)-(8-methyl-2-phenyl-imidazo[1,2-a]pyrazin-3-yl)-amine] |
| + | + |  | − | − | − | − | Clc1ccc(Nc2c(-c3ccccc3)nc3cnccn23)cc1 [compound 16, (4-Chloro-phenyl)-(2-phenyl-imidazo[1,2-a]pyrazin-3-yl)-amine] |
| ++ | − | (+) |  |  |  |  | c1ccc(Nc2c(-c3ccc(N4CCOCC4)cc3)nc3cnccn23)cc1 [compound 38, [2-(4-Morpholin-4-yl-phenyl)-imidazo[1,2-a]pyrazin-3-yl]-phenyl-amine] |
| ++ | − |  | − | − | − | − | Cc1nccn2c(Nc3cccc(Cl)c3)c(-c3ccccc3)nc12 [compound 3, (3-Chloro-phenyl)-(8-methyl-2-phenyl-imidazo[1,2-a]pyrazin-3-yl)-amine] |
